#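 Results reflect a 48-hour exposure of cells in 96-well plates to compound at five concentrations. TGI marks complete inhibition of growth.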
# Legend:
# Assay in all cases: NCI anticancer screen, dose series, 48 h
# OVCAR-5 ovarian = test system: OVCAR-5 ovarian
# SK-MEL-2 melanoma = test system: SK-MEL-2 melanoma
# NCI-H460 lung = test system: NCI-H460 lung
# RPMI-8226 leukemia = test system: RPMI-8226 leukemia
# UACC-62 melanoma = test system: UACC-62 melanoma
# HT29 colon = test system: HT29 colon
# OVCAR-8 ovarian = test system: OVCAR-8 ovarian
# HOP-18 NSCLC = test system: HOP-18 NSCLC
# SK-MEL-28 melanoma = test system: SK-MEL-28 melanoma
# NCI-H226 lung = test system: NCI-H226 lung
# ACHN renal = test system: ACHN renal
# MOLT-4 leukemia = test system: MOLT-4 leukemia
# COLO 205 colon = test system: COLO 205 colon
# NCI-H23 lung = test system: NCI-H23 lung
# SF-295 CNS = test system: SF-295 CNS
# MALME-3M melanoma = test system: MALME-3M melanoma
# KM20L2 colon = test system: KM20L2 colon
# NCI-H522 lung = test system: NCI-H522 lung
# SR leukemia = test system: SR leukemia
# IGROV1 ovarian = test system: IGROV1 ovarian
# M14 melanoma = test system: M14 melanoma
# SW-620 colon = test system: SW-620 colon
# U251 CNS = test system: U251 CNS
# OVCAR-4 ovarian = test system: OVCAR-4 ovarian
# DLD-1 colon = test system: DLD-1 colon
# CAKI-1 renal = test system: CAKI-1 renal
# OVCAR-3 ovarian = test system: OVCAR-3 ovarian
# LXFL 529 NSCLC = test system: LXFL 529 NSCLC
# SNB-19 CNS = test system: SNB-19 CNS
# SK-MEL-5 melanoma = test system: SK-MEL-5 melanoma
# TK-10 renal = test system: TK-10 renal
# XF 498 CNS = test system: XF 498 CNS
# HCT-15 colon = test system: HCT-15 colon
# SN12C renal = test system: SN12C renal
# SF-539 CNS = test system: SF-539 CNS
# SNB-75 CNS = test system: SNB-75 CNS
# LOX IMVI melanoma = test system: LOX IMVI melanoma
# M19-MEL melanoma = test system: M19-MEL melanoma
# HCC-2998 colon = test system: HCC-2998 colon
# KM12 colon = test system: KM12 colon
# K-562 leukemia = test system: K-562 leukemia
# SF-268 CNS = test system: SF-268 CNS
# RXF 393 renal = test system: RXF 393 renal
# UACC-257 melanoma = test system: UACC-257 melanoma
# HOP-62 NSCLC = test system: HOP-62 NSCLC
# A549 NSCLC = test system: A549 NSCLC
# DMS 273 small cell lung = test system: DMS 273 small cell lung
# UO-31 renal = test system: UO-31 renal
# HOP-92 NSCLC = test system: HOP-92 NSCLC
# EKVX NSCLC = test system: EKVX NSCLC
# A498 renal = test system: A498 renal
# SK-OV-3 ovarian = test system: SK-OV-3 ovarian
# 786-0 renal = test system: 786-0 renal
# CCRF-CEM leukemia = test system: CCRF-CEM leukemia
# DMS 114 small cell lung = test system: DMS 114 small cell lung
# SNB-78 CNS = test system: SNB-78 CNS
# HL-60(TB) leukemia = test system: HL-60(TB) leukemia
# HCT-116 colon = test system: HCT-116 colon
compound,measurement,setting,value
CCCCCCCCCCCCCC(=O)OC1C(O)C(CO)OC(OC)C1NC(=O)N(CCCl)N=O (stereo not given),TGI,OVCAR-5 ovarian,> 100 µM
same,TGI,SK-MEL-2 melanoma,> 100 µM
same,TGI,NCI-H460 lung,> 100 µM
same,TGI,RPMI-8226 leukemia,> 100 µM
same,TGI,UACC-62 melanoma,> 100 µM
same,TGI,HT29 colon,> 100 µM
same,TGI,OVCAR-8 ovarian,> 100 µM
same,TGI,HOP-18 NSCLC,> 100 µM
same,TGI,SK-MEL-28 melanoma,> 100 µM
same,TGI,NCI-H226 lung,> 100 µM
same,TGI,ACHN renal,> 100 µM
same,TGI,MOLT-4 leukemia,59.8 µM
same,TGI,COLO 205 colon,> 100 µM
same,TGI,NCI-H23 lung,> 100 µM
same,TGI,SF-295 CNS,> 100 µM
same,TGI,MALME-3M melanoma,> 100 µM
same,TGI,KM20L2 colon,> 100 µM
same,TGI,NCI-H522 lung,> 100 µM
same,TGI,SR leukemia,93.4 µM
same,TGI,IGROV1 ovarian,> 100 µM
same,TGI,M14 melanoma,> 100 µM
same,TGI,SW-620 colon,> 100 µM
same,TGI,U251 CNS,> 100 µM
same,TGI,OVCAR-4 ovarian,> 100 µM
same,TGI,DLD-1 colon,> 100 µM
same,TGI,CAKI-1 renal,> 100 µM
same,TGI,OVCAR-3 ovarian,> 100 µM
same,TGI,LXFL 529 NSCLC,> 100 µM
same,TGI,SNB-19 CNS,> 100 µM
same,TGI,SK-MEL-5 melanoma,> 100 µM
same,TGI,TK-10 renal,> 100 µM
same,TGI,XF 498 CNS,> 100 µM
same,TGI,HCT-15 colon,> 100 µM
same,TGI,SN12C renal,> 100 µM
same,TGI,SF-539 CNS,63.5 µM
same,TGI,SNB-75 CNS,> 100 µM
same,TGI,LOX IMVI melanoma,89.9 µM
same,TGI,M19-MEL melanoma,> 100 µM
same,TGI,HCC-2998 colon,> 100 µM
same,TGI,KM12 colon,> 100 µM
same,TGI,K-562 leukemia,> 100 µM
same,TGI,SF-268 CNS,> 100 µM
same,TGI,RXF 393 renal,> 100 µM
same,TGI,UACC-257 melanoma,86.8 µM
same,TGI,HOP-62 NSCLC,> 100 µM
same,TGI,A549 NSCLC,> 100 µM
same,TGI,DMS 273 small cell lung,> 100 µM
same,TGI,UO-31 renal,> 100 µM
C=CCSc1ncnc2c1ncn2C1OC(CO)C(O)C1O (stereo not given),TGI,OVCAR-5 ovarian,> 100 µM
same,TGI,HOP-92 NSCLC,> 100 µM
same,TGI,SK-MEL-2 melanoma,> 100 µM
same,TGI,NCI-H460 lung,> 100 µM
same,TGI,EKVX NSCLC,> 100 µM
same,TGI,A498 renal,> 100 µM
same,TGI,RPMI-8226 leukemia,> 100 µM
same,TGI,UACC-62 melanoma,> 100 µM
same,TGI,HT29 colon,> 100 µM
same,TGI,OVCAR-8 ovarian,18.5 µM
same,TGI,HOP-18 NSCLC,> 100 µM
same,TGI,SK-MEL-28 melanoma,> 100 µM
same,TGI,NCI-H226 lung,> 100 µM
same,TGI,SK-OV-3 ovarian,> 100 µM
same,TGI,ACHN renal,> 100 µM
same,TGI,MOLT-4 leukemia,> 100 µM
same,TGI,COLO 205 colon,> 100 µM
same,TGI,NCI-H23 lung,> 100 µM
same,TGI,SF-295 CNS,> 100 µM
same,TGI,MALME-3M melanoma,> 100 µM
same,TGI,KM20L2 colon,> 100 µM
same,TGI,NCI-H522 lung,> 100 µM
same,TGI,SR leukemia,> 100 µM
same,TGI,IGROV1 ovarian,> 100 µM
same,TGI,786-0 renal,> 100 µM
same,TGI,M14 melanoma,> 100 µM
same,TGI,SW-620 colon,> 100 µM
same,TGI,CCRF-CEM leukemia,> 100 µM
same,TGI,U251 CNS,> 100 µM
same,TGI,OVCAR-4 ovarian,> 100 µM
same,TGI,DLD-1 colon,> 100 µM
same,TGI,CAKI-1 renal,> 100 µM
same,TGI,OVCAR-3 ovarian,> 100 µM
same,TGI,SNB-19 CNS,> 100 µM
same,TGI,SK-MEL-5 melanoma,> 100 µM
same,TGI,TK-10 renal,> 100 µM
same,TGI,XF 498 CNS,> 100 µM
same,TGI,HCT-15 colon,> 100 µM
same,TGI,SN12C renal,> 100 µM
same,TGI,SF-539 CNS,> 100 µM
same,TGI,SNB-75 CNS,> 100 µM
same,TGI,LOX IMVI melanoma,> 100 µM
same,TGI,DMS 114 small cell lung,70.4 µM
same,TGI,SNB-78 CNS,> 100 µM
same,TGI,M19-MEL melanoma,> 100 µM
same,TGI,HCC-2998 colon,> 100 µM
same,TGI,KM12 colon,> 100 µM
same,TGI,K-562 leukemia,> 100 µM
same,TGI,HL-60(TB) leukemia,> 100 µM
same,TGI,SF-268 CNS,> 100 µM
same,TGI,HCT-116 colon,> 100 µM
same,TGI,UACC-257 melanoma,> 100 µM
same,TGI,HOP-62 NSCLC,> 100 µM
same,TGI,A549 NSCLC,> 100 µM
same,TGI,DMS 273 small cell lung,> 100 µM
same,TGI,UO-31 renal,> 100 µM
O=C(NN1C(=O)C(Cl)C1c1ccc(O)cc1)c1ccccc1O (stereo not given),TGI,SK-MEL-2 melanoma,48.3 µM
same,TGI,NCI-H460 lung,35.7 µM
same,TGI,UACC-62 melanoma,32.3 µM
same,TGI,HT29 colon,36.1 µM
same,TGI,OVCAR-8 ovarian,30.8 µM
same,TGI,HOP-18 NSCLC,30.4 µM
same,TGI,SK-MEL-28 melanoma,36.5 µM
same,TGI,NCI-H226 lung,30.7 µM
same,TGI,SK-OV-3 ovarian,59.5 µM
same,TGI,ACHN renal,34.5 µM
same,TGI,MOLT-4 leukemia,> 100 µM
same,TGI,NCI-H23 lung,41.8 µM
same,TGI,SF-295 CNS,33.9 µM
same,TGI,MALME-3M melanoma,34.5 µM
same,TGI,NCI-H522 lung,34.5 µM
same,TGI,IGROV1 ovarian,27.5 µM
same,TGI,786-0 renal,33.5 µM
same,TGI,M14 melanoma,38.4 µM
same,TGI,CCRF-CEM leukemia,> 100 µM
same,TGI,U251 CNS,27.3 µM
same,TGI,OVCAR-4 ovarian,40.4 µM
same,TGI,DLD-1 colon,30.6 µM
same,TGI,OVCAR-3 ovarian,31.7 µM
same,TGI,LXFL 529 NSCLC,33.3 µM
same,TGI,SNB-19 CNS,43.7 µM
same,TGI,SK-MEL-5 melanoma,27.7 µM
same,TGI,TK-10 renal,70.6 µM
same,TGI,XF 498 CNS,23.7 µM
same,TGI,HCT-15 colon,30.6 µM
same,TGI,SN12C renal,43.7 µM
same,TGI,SF-539 CNS,38.5 µM
same,TGI,SNB-75 CNS,> 100 µM
same,TGI,LOX IMVI melanoma,31.7 µM
same,TGI,DMS 114 small cell lung,29.6 µM
same,TGI,SNB-78 CNS,65.4 µM
same,TGI,M19-MEL melanoma,40.6 µM
same,TGI,KM12 colon,29.5 µM
same,TGI,K-562 leukemia,> 100 µM
same,TGI,HL-60(TB) leukemia,> 100 µM
same,TGI,SF-268 CNS,41.2 µM
same,TGI,RXF 393 renal,27 µM
same,TGI,HCT-116 colon,28.5 µM
same,TGI,UACC-257 melanoma,55.9 µM
same,TGI,A549 NSCLC,50 µM
same,TGI,DMS 273 small cell lung,25.5 µM
same,TGI,UO-31 renal,29 µM

# From PubChem BioAssay (NCI)
